The source of these data is patent US20070249670A1, “Glycogen Phosphorylase Inhibitor Compounds and Pharmaceutical Compositions Thereof” (SMITHKLINE BEECHAM CORPORATION, priority 2004, published 2007).

In this experiment the target is T1, human liver glycogen phosphorylase a (HLGPa) (Homo sapiens, UniProt P06737).
T1 construct: creating a full-length cDNA fused at the 5′ end to codons for methionine-glycine-alanine-histidine; 6xHis tag (leader Met-Gly-Ala-His6-Gly-Gly) (N); made in house; host or cells: E. coli (bacterial expression plasmid pTXK1007LTev)
T1 sequence (P06737 2-847 limits assumed): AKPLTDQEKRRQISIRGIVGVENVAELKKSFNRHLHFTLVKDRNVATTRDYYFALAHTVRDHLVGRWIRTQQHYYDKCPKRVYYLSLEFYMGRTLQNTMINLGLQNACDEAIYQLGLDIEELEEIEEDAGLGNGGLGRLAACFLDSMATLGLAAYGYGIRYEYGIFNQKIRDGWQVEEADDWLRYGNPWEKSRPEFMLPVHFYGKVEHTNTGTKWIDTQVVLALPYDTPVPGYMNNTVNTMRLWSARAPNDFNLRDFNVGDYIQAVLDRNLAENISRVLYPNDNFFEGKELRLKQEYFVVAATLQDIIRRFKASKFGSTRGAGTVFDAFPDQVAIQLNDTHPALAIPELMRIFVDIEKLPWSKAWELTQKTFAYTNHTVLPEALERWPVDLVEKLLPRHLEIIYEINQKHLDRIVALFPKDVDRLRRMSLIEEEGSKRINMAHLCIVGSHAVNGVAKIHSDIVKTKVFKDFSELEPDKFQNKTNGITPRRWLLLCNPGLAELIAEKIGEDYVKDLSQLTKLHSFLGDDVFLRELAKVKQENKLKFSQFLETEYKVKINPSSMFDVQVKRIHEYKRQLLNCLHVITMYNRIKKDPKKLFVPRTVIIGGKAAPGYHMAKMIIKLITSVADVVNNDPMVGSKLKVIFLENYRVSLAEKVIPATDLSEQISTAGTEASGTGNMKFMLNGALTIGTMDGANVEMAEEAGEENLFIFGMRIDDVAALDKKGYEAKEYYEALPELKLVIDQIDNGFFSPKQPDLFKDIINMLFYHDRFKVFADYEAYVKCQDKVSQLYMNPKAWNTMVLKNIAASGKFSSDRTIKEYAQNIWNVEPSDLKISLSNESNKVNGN
The experiment in a line: Human liver glycogen phosphorylase a enzymatic activity assay (coupled, fluorescent resorufin readout, with and without 10 mM glucose). The experiment is classed as biochemical. The following applies: human liver glycogen phosphorylase a enzymatic activity assay.

Consider `Cc1cc(CC2CC2)cc(C)c1NC(=O)Nc1cc(F)ccc1C(=O)N[C@H](C(=O)O)C1CCCCC1` [Example 482, (2S)-cyclohexyl[({2-[({[4-(cyclopropylmethyl)-2,6-dimethylphenyl]amino}carbonyl)amino]-4-fluorophenyl}carbonyl)amino]ethanoic acid], for which the IC50 – broadly, the concentration needed to halve the response being measured – was 5 nM.
Regarding `Cc1cc(CC2CC2)cc(C)c1NC(=O)Nc1cc(-c2ccc(F)c(F)c2)ccc1C(=O)N[C@H](C(=O)O)[C@@H](C)OC(C)(C)C` [Example 483, N-({3-[({[4-(cyclopropylmethyl)-2,6-dimethylphenyl]amino}carbonyl)amino]-3′,4′-difluoro-4-biphenylyl}carbonyl)-O-(1,1-dimethylethyl)-L-threonine], the IC50 was found to be 1 nM.
`COc1ccc(-c2nc(NC(=O)Nc3c(Cl)cc(Cl)cc3Cl)c(C(=O)N[C@H](C(=O)O)C3CCCCC3)s2)cc1` [Example 484, (2S)-Cyclohexyl({[2-[4-(methyloxy)phenyl]-4-({[(2,4,6-trichlorophenyl)amino]carbonyl}amino)-1,3-thiazol-5-yl]carbonyl}amino)ethanoic acid] showed an IC50 of 5000 nM.
In the case of `COc1ccc(-c2nc(C(=O)N[C@H](C(=O)O)C3CCCCC3)c(NC(=O)Nc3c(C)cccc3C(C)C)s2)cc1` [Example 486], the IC50 worked out at 1780 nM.
In turn, `COc1ccc(-c2nc(C(=O)N[C@H](C(=O)O)C3CCCCC3)c(NC(=O)Nc3c(Cl)cccc3Cl)s2)cc1` [Example 487, (2S)-Cyclohexyl[({5-({[(2,6-dichlorophenyl)amino]carbonyl}amino)-2-[4-(methyloxy)phenyl]-1,3-thiazol-4-yl}carbonyl)amino]ethanoic acid] displayed a half-inhibitory concentration (IC50) of 740 nM.
`COc1ccc(-c2nc(C(=O)O)c(NC(=O)Nc3c(C)cc(C)cc3C)s2)cc1` [Example 488, 2-[4-(Methyloxy)phenyl]-5-({[(2,4,6-trimethylphenyl)amino]carbonyl}amino)-1,3-thiazole-4-carboxylic acid] had an IC50 of 8230 nM.
For the compound `COc1ccc(-c2nc(C(=O)NC3(C(=O)O)CCCCC3)c(NC(=O)Nc3c(C)cc(C)cc3C)s2)cc1` [Example 489, 1-({[2-[4-(Methyloxy)phenyl]-5-({[(2,4,6-trimethylphenyl)amino]carbonyl}amino)-1,3-thiazol-4-yl]carbonyl}amino)cyclohexanecarboxylic acid], the IC50 stood at 34 nM.
`O=C(Nc1sc(-c2ccc(Cl)cc2)nc1C(=O)N[C@H](C(=O)O)C1CCCCC1)Nc1c(Cl)cc(Cl)cc1Cl` [Example 490, (2S)-({[2-(4-Chlorophenyl)-5-({[(2,4,6-trichlorophenyl)amino]carbonyl}amino)-1,3-thiazol-4-yl]carbonyl}amino)(cyclohexyl)ethanoic acid] showed an IC50 of 170 nM.
Consider `Cc1cccc(C)c1NC(=O)Nc1cc2ccccc2cc1C(=O)N(C)CC(=O)O` [Example 491, N-{[3-({[(2,6-dimethylphenyl)amino]carbonyl}amino)-2-naphthalenyl]carbonyl}-N-methylglycine], for which the midpoint of inhibition, the IC50, lay at 2110 nM.
Regarding `Cc1cccc(C)c1NC(=O)Nc1cc2ccccc2cc1C(=O)NCCCC(=O)O` [Example 492, 4-({[3-({[(2,6-dimethylphenyl)amino]carbonyl}amino)-2-naphthalenyl]carbonyl}amino)butanoic acid], the midpoint of inhibition, the IC50, lay at 7520 nM.
As for `COC(=O)CCNC(=O)c1cc2ccccc2cc1NC(=O)Nc1c(C)cc(C)cc1C` [Example 493, methyl N-{[3-({[(2,4,6-trimethylphenyl)amino]carbonyl}amino)-2-naphthalenyl]carbonyl}-beta-alaninate], the half-maximal inhibitory concentration (IC50) was determined as 9860 nM.
The figure for `Cc1cc(C)c(NC(=O)Nc2cc3ccccc3cc2C(=O)NCCC(=O)O)c(C)c1` [Example 494, N-{[3-({[(2,4,6-trimethylphenyl)amino]carbonyl}amino)-2-naphthalenyl]carbonyl}-beta-alanine] is 360 nM; for `Cc1cc(C)c(NC(=O)Nc2cc3ccccc3cc2C(=O)Nc2cccc(C(=O)O)c2)c(C)c1` [Example 495, 3-({[3-({[(2,4,6-trimethylphenyl)amino]carbonyl}amino)-2-naphthalenyl]carbonyl}amino)benzoic acid] it is 300 nM; for `O=C(Nc1cc2ccccc2cc1C(=O)Nc1cscc1C(=O)O)Nc1c(Cl)cccc1Cl` [Example 497, 4-({[3-({[(2,6-dichlorophenyl)amino]carbonyl}amino)-2-naphthalenyl]carbonyl}amino)-3-thiophenecarboxylic acid] it is 17700 nM.
As for `Cc1cc(C)c(NC(=O)Nc2cc3ccccc3cc2C(=O)Nc2cc(C(=O)O)cc(C(=O)O)c2)c(C)c1` [Example 498, 5-({[3-({[(2,4,6-trimethylphenyl)amino]carbonyl}amino)-2-naphthalenyl]carbonyl}amino)-1,3-benzenedicarboxylic acid], the IC50 was 110 nM.
Regarding `Cc1cccc(C)c1NC(=O)Nc1cc2ccccc2cc1C(=O)NC(C)CC(=O)O` (centres unmarked) [Example 500, 3-({[3-({[(2,6-dimethylphenyl)amino]carbonyl}amino)-2-naphthalenyl]carbonyl}amino)butanoic acid], half-maximal inhibition (IC50) was put at 2140 nM.
The figure for `Cc1cc(C)c(NC(=O)Nc2cc3ccccc3cc2C(=O)N[C@H](C(=O)O)c2ccc(O)cc2)c(C)c1` [Example 501, (2S)-(4-hydroxyphenyl)({[3-({[(2,4,6-trimethylphenyl)amino]carbonyl}amino)-2-naphthalenyl]carbonyl}amino)ethanoic acid] is 12 nM; for `Cc1cc(C)c(NC(=O)Nc2cc3ccccc3cc2C(=O)N[C@H](C(=O)O)C2CCC(O)CC2)c(C)c1` (stereo partly drawn) [Example 502, (2S)-(4-hydroxycyclohexyl)({[3-({[(2,4,6-trimethylphenyl)amino]carbonyl}amino)-2-naphthalenyl]carbonyl}amino)ethanoic acid] it is 13 nM.
Compound `COC(=O)[C@H](CC(=O)N(C)C)NC(=O)c1ccc(-c2ccc(OC)cc2)cc1NC(=O)Nc1c(C)cc(C)cc1C` [Example 503, methyl N^4,N^4-dimethyl-N^2-{[4′-(methyloxy)-3-({[(2,4,6-trimethylphenyl)amino]carbonyl}amino)-4-biphenylyl]carbonyl}-L-asparaginate] returned an IC50 of 11100 nM.
In turn, `COc1ccc(-c2ccc(C(=O)N[C@@H](CC(=O)N(C)C)C(=O)O)c(NC(=O)Nc3c(C)cc(C)cc3C)c2)cc1` [Example 504, N^4,N^4-dimethyl-N^2-{[4′-(methyloxy)-3-({[(2,4,6-trimethylphenyl)amino]carbonyl}amino)-4-biphenylyl]carbonyl}-L-asparagine] had a half-maximal inhibitory concentration (IC50) of 32 nM.
Consider `Cc1cc(CC2CC2)cc(C)c1NC(=O)Nc1cc(-c2cccc(F)c2)ccc1C(=O)N[C@H](C(=O)O)[C@@H](C)OC(C)(C)C` [Example 505, N-({3-[({[4-(cyclopropylmethyl)-2,6-dimethylphenyl]amino}carbonyl)amino]-3′-fluoro-4-biphenylyl}carbonyl)-O-(1,1-dimethylethyl)-L-threonine], for which 3 nM corresponded to half-maximal inhibition (IC50).
`CCOC(=O)C[C@H](NC(=O)c1ccc(-c2cccc(F)c2)cc1NC(=O)Nc1c(C)cc(C)cc1C)C(=O)O` [Example 506, (2S)-4-(ethyloxy)-2-({[3′-fluoro-3-({[(2,4,6-trimethylphenyl)amino]carbonyl}amino)-4-biphenylyl]carbonyl}amino)-4-oxobutanoic acid]: the IC50 was found to be 1090 nM.
Take `Cc1cc(C)c(NC(=O)Nc2cc(-c3cccc(F)c3)ccc2C(=O)N[C@@H](CC(=O)O)C(=O)O)c(C)c1` [Example 507, N-{[3′-fluoro-3-({[(2,4,6-trimethylphenyl)amino]carbonyl}amino)-4-biphenylyl]carbonyl}-L-aspartic acid]: it took 53 nM to reach half-maximal inhibition (IC50).
Consider `Cc1cc(C)c(NC(=O)Nc2cc3ccccc3cc2C(=O)N[C@@H](COCc2ccccc2)C(=O)O)c(C)c1` [Example 509, O-(Phenylmethyl)-N-{[3-({[(2,4,6-trimethylphenyl)amino]carbonyl}amino)-2-naphthalenyl]carbonyl}-L-serine], for which the half-inhibitory concentration (IC50) stood at 28 nM.
The compound `Cc1cc(C)c(NC(=O)Nc2cc(-c3ccc(F)c(F)c3)ccc2C(=O)N[C@@H](COCc2ccccc2)C(=O)O)c(C)c1` [Example 510, N-{[3′,4′-Difluoro-3-({[(2,4,6-trimethylphenyl)amino]carbonyl}amino)-4-biphenylyl]carbonyl}-O-(phenylmethyl)-L-serine] had an IC50 of 42 nM.
In the case of `O=C(Nc1ccc(-c2ccccc2)cc1)Nc1cc2ccccc2cc1C(=O)NC1(C(=O)O)CCCCC1` [Example 513, 1-{[(3-{[(4-biphenylylamino)carbonyl]amino}-2-naphthalenyl)carbonyl]amino}cyclohexanecarboxylic acid], the IC50 turned out to be 7430 nM.
